Measured values from patent US20220204539A1, “CD73 INHIBITORS” (BioArdis LLC, priority 2019, published 2022).

How the values were obtained:
[1] = target: T1, Recombinant Human 5′-Nucleotidase (CD73) (Homo sapiens, UniProt P21589); experiment: CD73 Enzyme Assay; format: biochemical; conditions: human CD73 0.5 nM, AMP 30 μM, PiColorLock phosphate detection; read-out: Potency (IC50, CD73 enzyme assay)
T1 construct: CHO derived CD73 (Trp27-Lys547), with a C-terminal 6-His tag; 6-His (C); purchased R&D 5795-EN; host or cells: CHO
T1 sequence (P21589 27-547): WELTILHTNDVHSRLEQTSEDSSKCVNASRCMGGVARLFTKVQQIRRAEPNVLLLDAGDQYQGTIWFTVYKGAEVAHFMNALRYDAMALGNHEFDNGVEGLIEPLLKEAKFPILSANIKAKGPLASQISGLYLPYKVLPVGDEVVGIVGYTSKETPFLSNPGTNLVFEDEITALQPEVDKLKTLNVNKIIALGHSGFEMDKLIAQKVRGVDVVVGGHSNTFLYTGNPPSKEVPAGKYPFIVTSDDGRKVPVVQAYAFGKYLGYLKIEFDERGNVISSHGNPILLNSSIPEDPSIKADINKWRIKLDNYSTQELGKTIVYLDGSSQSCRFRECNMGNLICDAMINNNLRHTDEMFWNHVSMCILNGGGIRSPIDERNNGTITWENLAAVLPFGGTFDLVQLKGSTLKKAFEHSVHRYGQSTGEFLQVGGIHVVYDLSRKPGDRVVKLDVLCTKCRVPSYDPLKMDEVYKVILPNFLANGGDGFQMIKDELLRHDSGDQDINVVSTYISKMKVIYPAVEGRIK
How it was run: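 Human CD73 (CHO-derived Trp27-Lys547, His-tagged; 0.5 nM final) was preincubated with compound for 15 min at 25° C. in Tris pH 7.5 buffer with MgCl2. It then reacted with 30 μM AMP for 20 min at 37° C., and released phosphate was read by malachite green absorbance at 635 nm. IC50 came from four-parameter fits against enzyme and no-enzyme controls.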

[2] = target: T2, Cell surface CD73 of U87 MG human glioblastoma cells (Homo sapiens, UniProt P21589); experiment: CD73 Cellular Assay; format: cell-based; conditions: 5000 cells per well, 30 μM AMP substrate, read-out: Potency (IC50, CD73 cellular assay)
T2 construct: Cell surface CD73 catalyzes the conversion of adenosine monophosphate (AMP) to adenosine and inorganic phosphate; endogenous in cells; host or cells: U87 MG human glioblastoma cells
T2 sequence (P21589 27-549): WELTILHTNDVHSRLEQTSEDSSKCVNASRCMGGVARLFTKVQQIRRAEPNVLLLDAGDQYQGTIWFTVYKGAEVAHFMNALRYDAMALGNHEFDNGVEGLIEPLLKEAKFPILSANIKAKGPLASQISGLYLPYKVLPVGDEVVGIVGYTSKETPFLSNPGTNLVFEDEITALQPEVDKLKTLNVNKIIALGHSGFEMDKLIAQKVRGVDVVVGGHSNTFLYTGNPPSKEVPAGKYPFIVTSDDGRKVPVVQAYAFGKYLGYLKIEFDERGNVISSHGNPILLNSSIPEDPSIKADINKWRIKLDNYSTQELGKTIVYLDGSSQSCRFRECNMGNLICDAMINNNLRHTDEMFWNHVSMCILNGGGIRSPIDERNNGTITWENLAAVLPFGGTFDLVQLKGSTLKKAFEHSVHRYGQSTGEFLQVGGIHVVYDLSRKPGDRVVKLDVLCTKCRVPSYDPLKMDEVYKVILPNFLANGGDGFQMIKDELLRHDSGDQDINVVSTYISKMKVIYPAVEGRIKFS
How it was run: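 U87 MG cells (5000/well) preincubated with compound 30 min at 37 °C, 5% CO2, in HEPES-buffered saline pH 7.4 with 0.5% DMSO, then 30 μM AMP (final) for 50 min. Released phosphate in supernatant read colorimetrically at 635 nm; IC50 from four-parameter logistic fit versus cells-plus-substrate and cells-only controls.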

[3] = tested on: CT-26 murine colon carcinoma; experiment: subcutaneous CT-26 murine colon carcinoma syngeneic model, combination therapy; format: in vivo; conditions: combination with anti-mPDI antibody 10 mg/kg i.p. twice weekly, 4 doses; compound 10 mg/kg iv once a day from day 6 post implant; CT-26 in BALB/c female mice
Description: Some compounds were evaluated preclinically for in vivo therapeutic efficacy as single agents or in combination with other agents. Compounds of the invention show potent anti-tumor effects when dosed in combination with, for example, an anti-mPDI antibody as evidenced by reducing tumor volume in a subcutaneous CT-26 murine colon carcinoma syngeneic model in BALB/c female mice. CT-26 tumor cells were implanted subcutaneously into BALB/c female mice for each experiment. Anti-mPDl antibody (10 mg/kg) was dosed i.p. starting on study day 6 post implant twice weekly for a total of 4 doses. Compound No. 65 (10 mg/kg) or vehicle was administered iv once a day starting on day 6 post implant.

IC50 [1]: < 10 nM
IC50 [2]: < 1 nM
SMILES: O=P(O)(O)CP(=O)(O)OC[C@H]1O[C@@H](c2cnc3c(N4CCCC4)nc(Cl)nn23)[C@H](O)[C@@H]1O [Compound 65, [({[(2R,3S,4R,5S)-5-[2-chloro-4-(pyrrolidin-1-yl)imidazo[2,1-f][1,2,4]triazin-7-yl]-3,4-dihydroxyoxolan-2-yl]methoxy}(hydroxy)phosphoryl)methyl]phosphonic Acid]
tumor volume [3]: reduction in tumor volume
